Assay results reported in ChEMBL document CHEMBL3046004, “Esterase-mediated resistance to pyrethroids in field populations of Helicoverpa armigera (Lepidoptera: Noctuidae) from Central Africa” (2009).

What was measured:
Assay type in all cases: functional
Helicoverpa armigera [1] = test: Insecticidal activity against fourth-instar larval stage of Helicoverpa armigera field strain Home isolated from cotton plant assessed as mortality applied topically onto thorax measured after 48 hr
Helicoverpa armigera [2] = test: Resistance factor, ratio of LD50 for fourth-instar larval stage of Helicoverpa armigera field strain Mokong to LD50 for fourth-instar larval stage of pyrethroid-susceptible Helicoverpa armigera laboratory strain BK-77
Helicoverpa armigera [3] = test: Insecticidal activity against fourth-instar larval stage of pyrethroid-resistance Helicoverpa armigera laboratory strain GS-RR08 assessed as mortality applied topically onto thorax measured after 48 hr in presence of 3.2 microg/larva […]
Helicoverpa armigera [4] = test: Insecticidal activity against fourth-instar larval stage of Helicoverpa armigera field strain Ngong isolated from cotton plant assessed as mortality applied topically onto thorax 30 min after 10 microg/larva cytochrome P450 monooxygenase inhibitor, PBO application measured after 48 hr
Helicoverpa armigera [5] = test: Insecticidal activity against fourth-instar larval stage of pyrethroid-resistance Helicoverpa armigera laboratory strain GS-RR06 assessed as mortality applied topically onto thorax 30 min after 10 microg/larva cytochrome P450 monooxygenase inhibitor, PBO application measured after 48 hr
Helicoverpa armigera [6] = test: Synergism factor, ratio of LD50 for fourth-instar larval stage of Helicoverpa armigera field strain Gaschiga isolated form hyptis plant to LD50 for fourth-instar larval stage of Helicoverpa armigera field strain Gaschiga isolated from hyptis plant in presence of 10 microg/larva cytochrome P450 monooxygenase inhibitor, PBO
Helicoverpa armigera [7] = test: Resistance factor, ratio of LD50 for fourth-instar larval stage of Helicoverpa armigera field strain Sorga to LD50 for fourth-instar larval stage of pyrethroid-susceptible Helicoverpa armigera laboratory strain BK-77
Helicoverpa armigera [8] = test: Insecticidal activity against fourth-instar larval stage of Helicoverpa armigera field strain Tchollire isolated from cotton plant assessed as mortality applied topically onto thorax measured after 48 hr
Helicoverpa armigera [9] = test: Insecticidal activity against fourth-instar larval stage of pyrethroid-resistance Helicoverpa armigera laboratory strain GS-RR08 assessed as mortality applied topically onto thorax measured after 48 hr
Helicoverpa armigera [10] = test: Insecticidal activity against fourth-instar larval stage of Helicoverpa armigera field strain Guider isolated from cotton plant assessed as mortality applied topically onto thorax 30 min after 10 microg/larva cytochrome P450 monooxygenase inhibitor, PBO application measured after 48 hr
Helicoverpa armigera [11] = test: Insecticidal activity against fourth-instar larval stage of pyrethroid-resistance Helicoverpa armigera laboratory strain GS-RR06 assessed as mortality applied topically onto thorax measured after 48 hr
Helicoverpa armigera [12] = test: Insecticidal activity against fourth-instar larval stage of Helicoverpa armigera field strain Gaschiga isolated from hyptis plant assessed as mortality applied topically onto thorax measured after 48 hr
Helicoverpa armigera [13] = test: Resistance factor, ratio of LD50 for fourth-instar larval stage of Helicoverpa armigera field strain Tchollire to LD50 for fourth-instar larval stage of pyrethroid-susceptible Helicoverpa armigera laboratory strain BK-77
Helicoverpa armigera [14] = test: Synergism factor, ratio of LD50 for fourth-instar larval stage of pyrethroid-resistance Helicoverpa armigera laboratory strain GS-RR08 to LD50 for fourth-instar larval stage of pyrethroid-resistance Helicoverpa armigera laboratory strain GS-RR08 in presence of 3.2 microg/larva propenofos
Helicoverpa armigera [15] = test: Resistance factor, ratio of LD50 for fourth-instar larval stage of pyrethroid-resistance Helicoverpa armigera laboratory strain GS-RR06 to LD50 for fourth-instar larval stage of pyrethroid-susceptible Helicoverpa armigera laboratory strain BK-77
Helicoverpa armigera [16] = test: Resistance factor, ratio of LD50 for fourth-instar larval stage of Helicoverpa armigera field strain Guider to LD50 for fourth-instar larval stage of pyrethroid-susceptible Helicoverpa armigera laboratory strain BK-77
Helicoverpa armigera [17] = test: Insecticidal activity against fourth-instar larval stage of Helicoverpa armigera field strain Sorga isolated from cotton plant assessed as mortality applied topically onto thorax measured after 48 hr
Helicoverpa armigera [18] = test: Insecticidal activity against fourth-instar larval stage of Helicoverpa armigera field strain Djalingo isolated from cotton plant assessed as mortality applied topically onto thorax measured after 48 hr
Helicoverpa armigera [19] = test: Insecticidal activity against fourth-instar larval stage of Helicoverpa armigera field strain Pitoa isolated from maize plant assessed as mortality applied topically onto thorax measured after 48 hr
Helicoverpa armigera [20] = test: Synergism factor, ratio of LD50 for fourth-instar larval stage of Helicoverpa armigera field strain Home to LD50 for fourth-instar larval stage of Helicoverpa armigera field strain Home in presence of 10 microg/larva cytochrome P450 monooxygenase inhibitor, PBO
Helicoverpa armigera [21] = test: Resistance factor, ratio of LD50 for fourth-instar larval stage of Helicoverpa armigera Foumbot to LD50 for fourth-instar larval stage of pyrethroid-susceptible Helicoverpa armigera laboratory strain BK-77
Helicoverpa armigera [22] = test: Insecticidal activity against fourth-instar larval stage of Helicoverpa armigera field strain Home isolated from cotton plant assessed as mortality applied topically onto thorax 30 min after 10 microg/larva cytochrome P450 monooxygenase inhibitor, PBO application measured after 48 hr
Helicoverpa armigera [23] = test: Insecticidal activity against fourth-instar larval stage of Helicoverpa armigera field strain Guider isolated from cotton plant assessed as mortality applied topically onto thorax measured after 48 hr
Helicoverpa armigera [24] = test: Resistance factor, ratio of LD50 for fourth-instar larval stage of pyrethroid-resistance Helicoverpa armigera laboratory strain GS-RR08 to LD50 for fourth-instar larval stage of pyrethroid-susceptible Helicoverpa armigera laboratory strain BK-77
Helicoverpa armigera [25] = test: Resistance factor, ratio of LD50 for fourth-instar larval stage of Helicoverpa armigera field strain Ngong to LD50 for fourth-instar larval stage of pyrethroid-susceptible Helicoverpa armigera laboratory strain BK-77
Helicoverpa armigera [26] = test: Insecticidal activity against fourth-instar larval stage of Helicoverpa armigera field strain Ngong isolated from cotton plant assessed as mortality applied topically onto thorax measured after 48 hr
Helicoverpa armigera [27] = test: Resistance factor, ratio of LD50 for fourth-instar larval stage of Helicoverpa armigera field strain Pitoa isolated from maize plant to LD50 for fourth-instar larval stage of pyrethroid-susceptible Helicoverpa armigera laboratory strain BK-77
Helicoverpa armigera [28] = test: Insecticidal activity against fourth-instar larval stage of Helicoverpa armigera field strain Pitoa isolated from maize plant assessed as mortality applied topically onto thorax 30 min after 10 microg/larva cytochrome P450 monooxygenase inhibitor, PBO application measured after 48 hr
Helicoverpa armigera [29] = test: Synergism factor, ratio of LD50 for fourth-instar larval stage of pyrethroid-resistance Helicoverpa armigera field strain Pitoa isolated from tomato plant to LD50 for fourth-instar larval stage of Helicoverpa armigera field strain Pitoa isolated from tomato plant in presence of 10 microg/larva cytochrome P450 monooxygenase inhibitor, PBO
Helicoverpa armigera [30] = test: Resistance factor, ratio of LD50 for fourth-instar larval stage of Helicoverpa armigera field strain Djalingo to LD50 for fourth-instar larval stage of pyrethroid-susceptible Helicoverpa armigera laboratory strain BK-77
Helicoverpa armigera [31] = test: Insecticidal activity against fourth-instar larval stage of Helicoverpa armigera field strain Pitoa isolated from tomato plant assessed as mortality applied topically onto thorax 30 min after 10 microg/larva cytochrome P450 monooxygenase inhibitor, PBO application measured after 48 hr
Helicoverpa armigera [32] = test: Synergism factor, ratio of LD50 for fourth-instar larval stage of Helicoverpa armigera field strain Ngong to LD50 for fourth-instar larval stage of Helicoverpa armigera field strain Ngong in presence of 10 microg/larva cytochrome P450 monooxygenase inhibitor, PBO
Helicoverpa armigera [33] = test: Synergism factor, ratio of LD50 for fourth-instar larval stage of Helicoverpa armigera Foumbot to LD50 for fourth-instar larval stage of Helicoverpa armigera Foumbot in presence of 10 microg/larva cytochrome P450 monooxygenase inhibitor, PBO

CC1(C)C(C=C(Cl)Cl)C1C(=O)OC(C#N)c1cccc(Oc2ccccc2)c1 (stereo not drawn) [ALPHA-CYPERMETHRIN]
LD50 (Helicoverpa armigera [1]): 43.9 microgAi/g
Ratio (Helicoverpa armigera [2]): 152
LD50 (Helicoverpa armigera [3]): 226.6 microgAi/g
LD50 (Helicoverpa armigera [4]): 3 microgAi/g
LD50 (Helicoverpa armigera [5]): 480.3 microgAi/g
Ratio (Helicoverpa armigera [6]): 25
Ratio (Helicoverpa armigera [7]): 123
LD50 (Helicoverpa armigera [8]): 48 microgAi/g
LD50 (Helicoverpa armigera [9]): 832.5 microgAi/g
LD50 (Helicoverpa armigera [10]): 8.8 microgAi/g
LD50 (Helicoverpa armigera [11]): 718.4 microgAi/g
LD50 (Helicoverpa armigera [12]): 45 microgAi/g
Ratio (Helicoverpa armigera [13]): 102
Ratio (Helicoverpa armigera [14]): 3.7
Ratio (Helicoverpa armigera [15]): 1529
Ratio (Helicoverpa armigera [16]): 67
LD50 (Helicoverpa armigera [17]): 57.7 microgAi/g
LD50 (Helicoverpa armigera [18]): 91.5 microgAi/g
LD50 (Helicoverpa armigera [19]): 239.9 microgAi/g
Ratio (Helicoverpa armigera [20]): 2.1
Ratio (Helicoverpa armigera [21]): 174
LD50 (Helicoverpa armigera [22]): 21.3 microgAi/g
LD50 (Helicoverpa armigera [23]): 31.6 microgAi/g
Ratio (Helicoverpa armigera [24]): 1771
Ratio (Helicoverpa armigera [25]): 240
LD50 (Helicoverpa armigera [26]): 112.6 microgAi/g
Ratio (Helicoverpa armigera [27]): 510
LD50 (Helicoverpa armigera [28]): 28.9 microgAi/g
Ratio (Helicoverpa armigera [29]): 5
Ratio (Helicoverpa armigera [30]): 194
LD50 (Helicoverpa armigera [31]): 53.2 microgAi/g
Ratio (Helicoverpa armigera [32]): 37.5
Ratio (Helicoverpa armigera [33]): 1.3
